Data as given in patent publication US12017992B2, “Compounds for modulating mitochondrial function” (Mayo Foundation for Medical Education and Research, priority 2015, dated 2024).
pEC50: −log10 of the molar value. “And” between values parts separate entries of the source, which are not always exact repeats. Identical values can stand only once. “Also recorded” adds a separate entry of the source. Like-named read-outs stand apart in the source and are kept apart here.

Assays:
NAD+ and NADH levels = NAD+ and NADH levels in primary embryonic cortical neurons (NAD+/NADH-GLO assay); assay type: cell-based, mouse; details: among C687-C695; 100 nM, 2 μM and 5 μM
Procedure: FIGS. 14A and 14B are graphs plotting NAD^+ and NADH levels (FIG. 14A) or the NAD^+/NADH ratio (FIG. 14B) in primary embryonic cortical neurons after treatment with the indicated compounds. Neurons were seeded on 96-well plates at 30,000 cells per well. Seven days later, cells were treated with each compound at 2 μM. NAD^+ and NADH levels were measured 24 hours later using the bioluminescent NAD^+/NADH-GLO assay (Promega; Madison, WI). NAD^+ and NADH levels are expressed as a percent of vehicle treated (control) cells (FIG. 14A). All experiments were performed in 6 replicates.
FIGS. 18A-18C are graphs plotting the level of NAD+ (FIG. 18A), the level of NADH (FIG. 18B), and the ratio of NAD+/NADH (FIG. 18C) in primary embryonic cortical neurons that were seeded on a 96-well plate at 30,000 cells per well and treated seven days later with the indicated compounds at concentrations 100 nM, 2 μM and 5 μM. NAD+, NADH, and NAD+/NADH ratio were measured using a bioluminescent NAD+/NADH-GLO assay (Promega). All experiments were performed in 6 replicates.

[1] = Comment on salt form (Table 3); assay type: physicochemical; details: TFA salt
[2] = system: cancer cell lines (HeLa, Panc1, p53−/− ms TCL, Patu, Su); experiment: Survival of cancer cell lines (MTT assay); assay type: cell-based, human; details: 5 μM or 50 μM, particularly at the higher dose
Description: (§1) FIGS. 20A-20G are a series of graphs plotting the effect of the indicated compounds on survival of various cancer cells vs. control. FIG. 20A, HeLa cervical cancer cells; FIG. 20B, Panc1 pancreatic cancer cells; FIG. 20C, P-WT: mouse embryonic fibroblasts (MEFs; control); FIG. 20D, P++: MEFs; FIG. 20E, p53−/− ms T-cell lymphoma (TCL) cells; FIG. 20F, Patu pancreatic cancer cells; FIG. 20G, Su pancreatic cancer cells.
(§2) The following […] cell lines were used: HeLa (cervical cancer, FIG. 20A); Panc1 (pancreatic cancer, FIG. 20B); P-WT MEFs (control, FIG. 20C), P++ MEFs (accelerated aging phenotype, FIG. 20D) p53−/− ms TCL (FIG. 20E); Patu (pancreatic cancer, FIG. 20F), and Su (pancreatic cancer, FIG. 20G).

MC65 cells = experiment: Efficacy against Aβ toxicity in MC65 Tet on/off cells (MTT assay); assay type: cell-based; details: for cell protective activity in Aβ-producing MC65 cells: 2.5 μM and 5 μM, compared to CP2; for pEC50: nonlinear regression
Procedure: FIGS. 4A and 4B are a pair of graphs plotting survival of MC65 cells after treatment with the indicated compounds, in the presence (Tet/off) or absence (Tet/on) of Aβ expression. MC65 cells were cultured for 72 hours in the presence (on) or absence (off) of tetracycline in OPTI-MEM media without serum. […] Cell viability was measured with an MTT assay 72 hours later. Experiments were performed in triplicates. Every 96-well plate had its own on/off control. Four experimental compounds were tested per each plate. Experiments were repeated independently twice.
(§3) FIGS. 5A and 5B are a pair of graphs plotting survival of MC65 cells after treatment with the indicated compounds, in the presence (Tet/off) or absence (Tet/on) of Aβ expression. MC65 cells were cultured for 72 hours in the presence (on) or absence (off) of tetracycline in OPTI-MEM media without serum. Cells (Tet/on and Tet/off) at the time of plating were treated every 24 hours with vehicle (0.05% final DMSO) or experimental compounds (FIG. 5A, C458-C461; FIG. 5B, C462-C465) at 2.5 μM and 5 μM. Cell viability was measured with an MTT assay 72 hours later. Experiments were performed in triplicates. Every 96-well plate had its own on/off control. Four experimental compounds were tested per each plate. Experiments were repeated independently twice.
as §3, with “FIG. 6A is” for “FIGS. 5A and 5B are”, “graph” for “pair of graphs”, “(C470-C473)” for “(FIG. 5A, C458-C461; FIG. 5B, C462-C465)”, “twice. […] Toxicity of C463 under the same experimental conditions is shown for comparison. Cells were treated with 5 μM of each compound.” for “twice.”
FIGS. 9A-9D are a series of graphs plotting the half maximal effective concentration (EC50) for each of four experimental compounds against Aβ toxicity in MC65 Tet on/off cells. FIG. 9A, C455; FIG. 9B, C458; FIG. 9C, C460; FIG. 9D, C472.
FIGS. 11A and 11B are graphs plotting survival of MC65 cells cultured for 72 hours in the presence (on; FIG. 11A) or absence (off, FIG. 11B) of tetracycline in OPTI-MEM media without serum. Cells (Tet/on and Tet/off) at the time of plating were treated with either vehicle (0.05% final DMSO) or experimental compounds at 2.5 μM every 24 hours. Cell viability was measured with an MTT assay 72 hours later. Experiments were performed in triplicate, and every 96-well plate had its own on/off control. Four experimental compounds were tested per plate. Experiments were repeated independently twice.
FIGS. 15A and 15B are graphs plotting percent survival of MC65 cells cultured in the presence of tetracycline (Tet-On) (FIG. 15A) or without tetracycline (Tet-off) (FIG. 15B) in OPTI-MEM media without serum. […] Cell viability was measured with an MTT assay 72 hours after plating. Experiments were performed in triplicate, and were repeated independently twice.
The efficacy of all 24 compounds against Aβ toxicity was evaluated in MC65 cells. […] The viability of MC65 cells expressing Aβ (Tet/off, 40% viability) or not expressing Aβ (Tet/on, 100% viability) was measured after treatment with individual compounds. Results for all 24 compounds against Aβ toxicity are presented in FIGS. 4A, 4B, 5A, 5B, 6A, and 6B.
To further characterize the efficacy of these four compounds, the half maximal effective concentration (EC50) against Aβ toxicity in MC65 cells was measured using an MTT assay. […]

[3] = system: P++ MEFs (accelerated aging phenotype); experiment: Growth of P++ mouse embryonic fibroblasts (MTT assay); assay type: cell-based; details: 5 μM or 50 μM
Description: as §1, §2

ATP production = experiment: ATP levels in primary embryonic cortical neurons; assay type: cell-based, mouse; details: 10 nM to 5 μM, 24 hours
Procedure: FIGS. 12A and 12B are a pair of graphs plotting ATP levels in primary embryonic cortical neurons that were seeded on 96-well plates at 30,000 cells per well and treated with the indicated compounds at concentrations ranging from 10 nM to 5 μM, as indicated. ATP levels were measured 24 hours later using an ATP determination Kit (Life Technologies; Carlsbad, CA). ATP levels are expressed as a percent of vehicle treated (control) cells. All experiments were performed twice in 6 replicates.
FIG. 17 is a graph plotting ATP levels in primary embryonic cortical neurons after seeding on a 96-well plate at 30,000 cells per well and being treated seven days later with the indicated compounds at concentrations of 100 nM, 2 μM, and 5 μM. ATP levels were measured 24 hours after treatment using the bioluminescent CellTiter-GLO 2 assay (Promega, Madison, WI). All experiments were performed in 6 replicates.
To further characterize these nine new compounds, Complex I activity was measured in isolated mitochondria, and levels of ATP, NAD+, and NADH were measured in primary mouse embryonic cortical neurons (FIGS. 16-18).

[4] = PK of C458 in mice, plasma and brain by LC-MS/MS; assay type: in vivo, mouse; details: for Brain Concentration / Plasma Concentration / concentration at 0.5 h / concentration at 1 h / concentration at 2 h: single mouse; for concentration at 0.5 h / concentration at 1 h / concentration at 2 h / half-life / Kp: mouse; for concentration at 0.5 h / concentration at 1 h / concentration at 2 h: 2 mg/kg
Procedure: FIG. 10 is a graph plotting the elimination rate for C458 in brain and plasma of mice treated with 2.5 mg/kg of the compound via intrafemoral vein injection. Animals were sacrificed at 30 minutes, 1 hour, and 2 hours post injection.
The feasibility of developing the C458 series was evaluated by determining the in vivo PK profile for C458. Re-synthesized C458 was administered intravenously to wild type mice at 2 mg/kg. Frozen serum and brain tissue samples were analyzed using a bioanalytical LC-MS/MS method.
A rough estimation of elimination rate and half-life of C458 was determined in vivo by delivering a dose of 2.5 mg/kg to each mouse via intrafemoral vein injection. Each group of animals (n=2) was sacrificed at 30 minutes, 1 hour, and 2 hours post injection. Blood and brain tissue was collected, flash frozen, and the concentration of C458 was estimated using a LC-MS/MS assay with a linear calibration curve from 1 ng/ml to 1 ug/ml in both plasma and brain.
For rough estimation of elimination rate and half-life, a one-compartment model and the first rate elimination was assumed. Plotting (Ln) of concentration vs. time provided the elimination rate and half-life of C458 in plasma and the brain (FIG. 10).

[5] = In vivo toxicity and histology of C458 in WT mice; design: species or system mouse; details: 50 mg/kg for one month ad libitum in drinking water
Procedure: To evaluate the toxicity of C458 in vivo, 2-month old breeding WT mice were treated with 50 mg/kg of C458 via drinking water. Untreated littermates were used as controls. After one month of treatment, adult and newborn animals were sacrificed and tissue was collected for histological examination.

SMILES: Cc1cccc(O[C@@H]2CCC[C@H](C(C)CN(C)Cc3ccncc3)C2)c1 (stereo partly drawn) [Compound C693]
- efficacy in increasing NADH and decreasing NAD+/NADH ratio (NAD+ and NADH levels): highest efficacy

SMILES: Cc1cccc(O[C@@H]2CCC[C@H](C(C)CN(Cc3ccncc3)C(C)C)C2)c1 (stereo partly drawn) [Compound C694]
- efficacy in increasing NADH and decreasing NAD+/NADH ratio (NAD+ and NADH levels): highest efficacy

SMILES: Cc1cccc(O[C@@H]2CCC[C@H](C(C)CNCc3ccncc3)C2)c1 (stereo partly drawn)
- Comments (salt form) [1]: Highly hygroscopic

SMILES: Cc1cc2c(c(=O)o1)C=C1CCN(C(=O)Cc3cccc(O)c3)C[C@@H]1O2 [Compound C460]
- growth of cancer cell lines [2]: suppressed growth of the cancer cell lines tested
- cell protective activity in Aβ-producing MC65 cells (MC65 cells; 72 hours): promising cell protective activity
- efficacy against Aβ toxicity (representative images, FIG. 6B) (MC65 cells; 5 μM, 72 hours, Tet/on and Tet/off): efficacy
- growth of P++ MEFs [3]: suppress the growth
- effect on ATP production (ATP production): little or no effect

SMILES: Cc1cccc(O[C@@H]2CCC[C@H](C(C)CNCc3ccncc3)C2)c1 (relative stereo) [Compound C458, cis-(N-(pyridin-4-ylmethyl)-2-(3-(m-tolyloxy)cyclohexyl)propan-1-amine)]
- Brain Concentration ([4]; 0.5 hr): 390 ng/g
- Plasma Concentration ([4]; 0.5 hr): 41.4 ng/mL
- Brain Concentration ([4]; 1 hr): 149 ng/g
- Plasma Concentration ([4]; 1 hr): 15.2 ng/mL
- Brain Concentration ([4]; 2 hr): 76.4 ng/g
- Plasma Concentration ([4]; 2 hr): 10.3 ng/mL
- bioavailability ([4]; from elimination rate and half-life in plasma and brain): good bioavailability
- CNS penetration ([4]; mice, intravenous): significant CNS penetration; also recorded: penetrates the blood brain barrier and accumulates in the brain
- concentration at 0.5 h ([4]; brain, intravenous, 0.5 hr, read-out: Brain Concentration): 316 ng/g
- concentration at 1 h ([4]; brain, intravenous, 1 hr, read-out: Brain Concentration): 118 ng/g
- concentration at 2 h ([4]; brain, intravenous, 2 hr, read-out: Brain Concentration): 68.2 ng/g
- half-life ([4]; brain, intravenous, 2.5 mg/kg intrafemoral vein injection, one-compartment model, first rate elimination, read-out: estimated half-life in brain): 42 min
- Kp ([4]; brain, intravenous, 2.5 mg/kg intrafemoral vein injection, read-out: concentration in the brain, times higher than in plasma): 7 to 8
- Kp ([4]; brain, iv, wild type mice, intravenously at 2 mg/kg, read-out: concentration in brain tissue, times higher (w/v) than in plasma): 7 to 10
- concentration at 0.5 h ([4]; plasma, intravenous, 0.5 hr, read-out: Plasma Concentration): 43.7 ng/mL
- concentration at 1 h ([4]; plasma, intravenous, 1 hr, read-out: Plasma Concentration): 13 ng/mL
- concentration at 2 h ([4]; plasma, intravenous, 2 hr, read-out: Plasma Concentration): 9.83 ng/mL
- half-life ([4]; plasma, intravenous, 2.5 mg/kg intrafemoral vein injection, one-compartment model, first rate elimination, read-out: estimated half-life in plasma): 48 min
- half-life ([4]; serum, iv, wild type mice, intravenously at 2 mg/kg, read-out: apparent t1/2 in the blood): 48 min
- cell protective activity in Aβ-producing MC65 cells (MC65 cells; 72 hours): promising cell protective activity
- fold higher efficacy (lower EC50) of C458 than CP2 (MC65 cells; EC50 against Aβ toxicity): 20- to 30 fold and 30 fold
- fold higher efficacy of C458 than C455 and C460 (MC65 cells; EC50 against Aβ toxicity): 100 fold
- pEC50 (MC65 cells; MC65, MTT assay): ~8.40
- pEC50 (MC65 cells; MTT assay): 8.44
- effect on ATP production (ATP production): modestly reduced ATP production
- histology of adult WT mice [5]: did not cause histological abnormalities
- pathology of newborn mice conceived by treated breeding WT mice [5]: no pathological abnormalities were detected

SMILES: Cc1cc2c(c(=O)o1)C=C1CCN(C(C)CCc3ccc(O)cc3)C[C@@H]1O2 (stereo partly drawn) [Compound C455]
- growth of cancer cell lines [2]: suppressed growth of the cancer cell lines tested
- cell protective activity in Aβ-producing MC65 cells (MC65 cells; 72 hours): promising cell protective activity
- growth of P++ MEFs [3]: suppress the growth
- effect on ATP production (ATP production): modestly reduced ATP production
